Measured values published in PMC9173784 (Proceedings of the National Academy of Sciences of the …, 2022).

Legend:
GALR1 [1] = test: Zn2+ inhibition assay, NanoBiT; format: cell-based, human
GALR2 [2] = test: Zn2+ inhibition assay, NanoBiT; format: cell-based, human; details: HEK-293T cells, pH 7.3
GALRs [3] = details: cited from earlier work
[4] = test system: ionotropic glutamate AMPA receptors; details: cited from earlier work
NMAR receptors = details: cited from earlier work
[5] = target: GALR1 Q92^2.61 to alanine (human) (UniProt P47211)
GALR1 V274G (human) = GALR1 V274G (human) (UniProt P47211)
GALR2 F271^7.32A (human) = GALR2 F271^7.32A (human) (UniProt O43603)
[6] = target: GALR2 Q82^2.61 to alanine (human) (UniProt O43603)
GALR2 R184^5.35A (human) = GALR2 R184^5.35A (human) (UniProt O43603)
[7] = target: GALR1 F275 mutant (human) (UniProt P47211)
[8] = target: GALR2 F264 mutant (human) (UniProt O43603)
GALRs [9] = details: cited from earlier work; remark: listed apart in the source
GALR1 or mutants = test: cAMP inhibition assay; format: cell-based, human; details: CHO cells
GALR2 or mutants = test: IP1 accumulation assay; format: cell-based, human; details: HEK-293T cells, 1 h
GALR1 and its mutants = test: NanoBiT mini-Go recruitment assay; format: cell-based, human
GALR2 and its mutants = test: NanoBiT mini-Gq recruitment assay; format: cell-based, human; details: mutations of conserved TM3/TM5/TM6 residues in GALR2
GALR2 with ICL3 of GALR1 = test: GALR2-Go coupling with ICL3 substitution; format: cell-based, human; details: ICL3 (214 to 225) of GALR2 replaced by GALR1 residues
GALR2 [10] = test: NanoBiT assay, GALR2-Gαs coupling; format: cell-based, human; details: E(-3) in Gαs substituted with the equivalent Gαq residue
GALR2 [11] = test: GALR2-Gq coupling of ICL2 and TM5 mutants; format: cell-based, human; details: L^5.65A mutation in GALR2
GALR1 [12] = details: cited from earlier work
GALR2 [13] = details: cited from earlier work
GALR3 [14] = details: mutation of equivalent residue F263 in GALR3; cited from earlier work
GALR2 [15] = details: specific for GALR2 and GALR3; cited from earlier work
GALR3 [16] = details: specific for GALR2 and GALR3; cited from earlier work
[17] = S235^ICL3 and K237^ICL3 mutations in GALR1

For `[Zn+2]` [Zn^2+, ZnCl2], the “character of Zn2+ inhibition” value (GALR1 [1]; 1 μM galanin, wild-type GALR1, HEK-293T cells, pH 7.3) was “saturable or has a “ceiling” level”, the “effect of mutation on zinc inhibition” value (GALR1 [1]; GALR1 H112^3.29A, 1 μM galanin, HEK-293T cells) was “little influence” and the “effect of mutation on zinc inhibition” value (GALR1 [1]; GALR1 H263^6.51F, 1 μM galanin, HEK-293T cells) was “little influence”. For the same molecule, the “effect of mutation on zinc inhibition” value (GALR1 [1]; GALR1 H264^6.52F, 1 μM galanin, HEK-293T cells) was “little influence”, the “effect on galanin concentration-response curve” value (GALR1 [1]; H267^6.55A mutant of GALR1, HEK-293T cells) was “little effect” and the “allosteric modulation of GALR1” value (GALR1 [1]; conclusion from NanoBiT assay, listed as zinc ion) was “negative allosteric regulator”. The “effect on galanin-induced GALR2 activation” value (GALR2 [2]; below millimolar Zn2+) was “little effect”, the “Zn2+ concentration at which galanin activation of GALR2 is diminished” value (GALR2 [2]; galanin-induced, above the physiological concentration) was “millimolar range” and the “inhibition of galanin binding to the receptors” value (GALRs [3]) was “can inhibit galanin binding”. The “effect on AMPA receptors” value [4] was “inhibits” and the “effect on NMDA receptors” value (NMAR receptors) was “inhibits”.

For “N-terminal region of galanin ([1]–[16]): N-terminal region of galanin”, the “binding affinity for the receptors relative to full-length galanin” value (GALRs [3]) is listed as “comparable to the full-length galanin”.

galanin peptide 1 through 30 gave a fold reduction of galanin potency, cAMP inhibition assay [5] of 100 fold, a fold reduction of agonist potency, cAMP inhibition assay (GALR1 V274G (human)) of 370 fold and a fold reduction of galanin potency, IP1 accumulation assay (GALR2 F271^7.32A (human)) of 100 fold. It also gave a fold reduction of galanin potency, IP1 accumulation assay [6] of 100 fold, a fold reduction of galanin potency, IP1 accumulation assay (GALR2 R184^5.35A (human)) of 10 fold and a fold reduction of galanin potency, cAMP inhibition assay [7] of 100 fold. For the same molecule, the fold reduction of galanin potency, IP1 accumulation assay [8] was 100 fold.

For “galanin-like peptide (GALP): endogenous galanin-like peptide (APAHRGRGGWTLNSAGYLLGPVLHLPQMGDQDGKRETALEILDLWKAIDGLPYSHPPQPS; Galanin-like peptide; UniProt Q9UBC7 25-84, looked up)”, the “activation of GALRs” value (GALRs [9]) is given as “activate GALRs”.

For “galanin: 29- or 30-amino acid peptide, endogenous ligand; galanin peptide 1 through 30 (MedChemExpress)”, the “reduction of agonist (galanin) potency vs wild type” value (GALR1 or mutants; V274G mutant of GALR1 (ECL3), 1 μM forskolin) was “about 370 fold”, the “effect of mutation on galanin potency” value (GALR1 or mutants; W188^ECL2 mutant of GALR1, compared with H176^ECL2 mutant of GALR2) was “distinct effect” and the “reduction of galanin potency vs wild type” value (GALR1 or mutants; mutation of F275 (ECL3) in GALR1, 1 μM forskolin) was ~100 fold. For the same molecule, the “reduction of galanin potency vs wild type” value (GALR2 or mutants; Q82^2.61 to alanine mutant of GALR2) was ~100 fold, the “effect of mutation on galanin potency” value (GALR2 or mutants; Q263A mutant of GALR2 (ECL3)) was “little effect” and the “reduction of galanin potency vs wild type” value (GALR2 or mutants; R184^5.35A mutant of GALR2) was “about 10 fold”. For the same molecule, the “reduction of galanin potency vs wild type” value (GALR2 or mutants; mutation of F264 (ECL3) in GALR2) was ~100 fold, the “effect of mutation on galanin maximum response” value (GALR1 and its mutants; [17]) was “dramatically reduced” and the “effect of mutation on galanin potency” value (GALR1 and its mutants; [17]) was “modest effect”. For the same molecule, the “recruitment of Gi” value (GALR1 and its mutants; mutations of conserved TM3/TM5/TM6 residues in GALR1) was “impair”, the “recruitment of Gq” value (GALR2 and its mutants) was “impair” and the “ability of GALR2 to bind Go” value (GALR2 with ICL3 of GALR1) was “acquired the ability to bind Go”. The “coupling efficiency between GALR2 and Gs” value (GALR2 [10]) was “significantly increased”, the “effect of mutation on galanin potency” value (GALR2 [11]) was “significantly decreased” and the “reduction of galanin binding affinity” value (GALR1 [12]; H267^6.55 mutation of GALR1) was “more than 100 fold”. For the same molecule, the “galanin binding affinity of mutants” value (GALR1 [12]; mutations of F115 and H264 of GALR1) was “significantly reduce”, the “galanin binding to mutant” value (GALR2 [13]; mutation of F264 in GALR2) was “completely abolishes” and the “galanin binding affinity of mutants” value (GALR2 [13]; mutations of F106, H252, H253, I256, W260, and F261 of GALR2) was “significantly reduce”. For the same molecule, the “galanin binding to mutant” value (GALR3 [14]) was “completely abolishes” and the “binding affinity for GALRs” value (GALRs [3]) was “subnanomolar range”.

B1: spexin: endogenous peptide spexin has A7M and G8L mutations in galanin (peptide, UniProt Q9BT56 27-116, looked up)
Spexin: APQRLLERRNWTPQAMLYLKGAQGRRFISDQSRRKDLSDRPLPERRSPNPQLLTIPEAATILLASLQKSPEDEEKNFDQTRFLEDSLLNW
modifications: Spexin
In the case of B1, the “activation of GALRs” value (GALRs [9]) is given as “activate GALRs”, the “activation of GALR2” value (GALR2 [15]) is given as “specifically activates GALR2 and GALR3” and the “activation of GALR3” value (GALR3 [16]) is given as “specifically activates GALR2 and GALR3”.
